Each block holds one compound with its values, some of them ahead of it.
Legend:
[1] = target: T1, ferrochelatase (Sus scrofa, UniProt F1S1X4); assay: Photoaffinity pull down from porcine brain lysate; format: binding; details: competition with excess (1 mM) cremastranone isomer; immunoblot band intensity
T1 construct: from tissue; host or cells: porcine brain lysate (S2 and S3 supernatants)
T1 sequence (F1S1X4 1-433): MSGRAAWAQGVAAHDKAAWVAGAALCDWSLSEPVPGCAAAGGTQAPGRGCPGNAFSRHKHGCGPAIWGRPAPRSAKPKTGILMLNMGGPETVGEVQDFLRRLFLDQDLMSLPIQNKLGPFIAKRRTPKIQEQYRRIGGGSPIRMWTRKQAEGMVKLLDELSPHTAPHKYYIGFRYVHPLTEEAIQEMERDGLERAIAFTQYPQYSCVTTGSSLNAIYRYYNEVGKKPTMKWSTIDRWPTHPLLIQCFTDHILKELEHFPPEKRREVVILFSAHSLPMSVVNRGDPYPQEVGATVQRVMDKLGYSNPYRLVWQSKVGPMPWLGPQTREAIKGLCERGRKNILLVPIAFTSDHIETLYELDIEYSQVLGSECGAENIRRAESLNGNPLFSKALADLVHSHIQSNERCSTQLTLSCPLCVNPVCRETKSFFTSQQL
Protocol: Synthesis and characterization of affinity reagents 2 and 3 are shown in WO2014182695A1, filed May 6, 2014, and incorporated by reference to the extent it is consistent herewith. Compounds 1 and 4 were synthesized as described in Lee et al., Org Biomol Chem 28, p. 28 (2014); Basavarajappa et al., PLoS One 9, e95694 (2014). For pulldowns, Neutravidin agarose beads (1 mL of 50% slurry) were washed three times in buffer A containing 25 mM Tris-HCl pH 7.4, 150 mM NaCl, 2.5 mM sodium pyrophosphate, 1 mM phenylmethylsulfonyl fluoride (PMSF), 0.1 mM sodium orthovanadate, 10 μg/mL aprotinin and 10 μg/mL leupeptin. The beads were then incubated with 100 μM affinity or control reagents 2 or 3 overnight at 4° C. with rotation. […]
The beads were collected by centrifugation at 500×g for 5 minutes, then resuspended in 1 mL of buffer B and irradiated with 365 nm UV light (Mercury bulb H44GS100 from Sylvania in a Black-Ray 100 A long-wave UV lamp) in a 60 mm Petri dish for 30 minutes at 4° C. […] The eluates were then analyzed in 4-20% gradient SDS-PAGE and the protein bands were visualized using silver staining. The protein bands pulled down specifically by photo-affinity reagent were excised from the silver stained SDS-PAGE gel and analyzed by mass spectrometry (IUSM Proteomics Core). […]

[2] = test system: HRECs; assay: Cell proliferation assay (alamarBlue), HRECs; format: cell-based, human
Protocol: Proliferation of cells was monitored as described in Basavarajappa et al., PLoS One 9 (2014). Briefly, after FECH knockdown 2,500 cells in 100 μL of growth medium were plated in each well of 96-well clear-bottom black plates and incubated for 24 hours. Then, compound/DMSO vehicle (final DMSO concentration of 1%) were added and the plates were incubated for 44 hours in 100 μL media at 37° C. and 5% CO2. Then, 11.1 μL of alamarBlue reagent was added to each well of the plate and 4 hours later fluorescence readings were taken at excitation and emission wavelengths of 560 nm and 590 nm respectively using a Synergy H1 plate reader (BioTek, Winooski, Vt., USA). The concentration ranges of griseofulvin and NMPP used were 0.5 nM-500 μM and 0.1 nM-100 μM respectively.

[3] = test system: endothelial cells; assay: Anti-proliferative activity of cremastranone; format: cell-based, human; details: endothelial versus non-endothelial cells
[4] = target: T2, FECH (Homo sapiens, UniProt P22830); assay: PPIX build-up assay; format: cell-based; details: HRECs, 5-ALA induced
T2 construct: host or cells: HRECs (human retinal endothelial cells)
T2 sequence (P22830 55-423): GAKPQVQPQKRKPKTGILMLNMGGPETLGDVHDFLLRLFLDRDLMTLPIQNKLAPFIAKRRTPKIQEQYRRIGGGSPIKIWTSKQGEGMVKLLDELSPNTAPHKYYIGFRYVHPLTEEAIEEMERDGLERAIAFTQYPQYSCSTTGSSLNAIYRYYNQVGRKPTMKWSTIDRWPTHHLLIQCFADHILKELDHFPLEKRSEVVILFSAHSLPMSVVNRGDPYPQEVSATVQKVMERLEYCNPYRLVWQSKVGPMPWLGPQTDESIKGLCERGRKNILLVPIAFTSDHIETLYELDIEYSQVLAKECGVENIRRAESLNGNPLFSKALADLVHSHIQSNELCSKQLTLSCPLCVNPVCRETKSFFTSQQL
Protocol: HRECs were grown in a 6-well plate until confluent. Then, cells were serum starved overnight in EBM-2 medium. Fresh EGM-2 medium containing DMSO or compounds was added to cells, and they were incubated at 37° C. for 1 hour followed by addition of 1 mM 5-ALA to increase flux through the heme biosynthetic pathway. After 3 hours of incubation in the dark at 37° C., the cells were trypsinized and lysed in buffer containing 25 mM HEPES-NaOH pH 7.4, 150 mM NaCl, 1% NP-40, 10% glycerol and 1 mM PMSF. The cell lysates were incubated in the dark at 4° C. for 20 minutes on a shaker and centrifuged at 12000×g for 15 minutes. Supernatants were collected for analysis. In a 384-well black plate, 20 μL of supernatant was mixed with 20 μL of 1:1 solution of 2 M perchloric acid and methanol. After 5 minutes of incubation, fluorescence readings were taken at excitation and emission wavelengths of 407 nm and 610 nm using the Synergy plate reader.

[5] = test system: HRECs; assay: Scratch-wound migration assay; format: cell-based, human
Protocol: The migration of HRECs was monitored as described in Basavarajappa et al., PLoS One 9, e95694 (2014). Briefly, HRECs were grown until confluency in 6-well plates and then serum starved overnight in EBM-2 medium. Then, using a sterile 10 μL tip, a scratch was introduced in each well and fresh EGM-2 medium containing DMSO or different concentrations of compounds was added to the wells. For knockdown experiments, the scratch was introduced 48 hours after transfection and fresh medium was added to the wells. Photographs of the wells were taken at different time points to measure the number of migrated cells into the scratched area.

[6] = test system: HRECs; assay: In vitro Matrigel tube formation assay; format: cell-based, human
Protocol: The ability of HRECs to form tubes in vitro was monitored as described in Basavarajappa et al., J Med Chem 58, pp. 5015-5027 (2015). Briefly, HRECs were treated with the indicated concentrations of compounds or DMSO or siRNAs for 48 hours and then 15,000 HRECs in 100 μL of EGM-2 medium containing siRNAs, DMSO or compounds were added to each well of a 96-well plate that was pre-coated with 50 μL of Matrigel basement membrane. Photographs of each well at different time points were taken to measure the tube formation using the Angiogenesis Analyzer plugin in ImageJ software (v.1.48).

[7] = Oral griseofulvin systemic effects (mouse and liver weights); format: in vivo; details: oral feeding
Protocol: Mice were fed griseofulvin for a total of 3 weeks, with chow changed every 2-3 days. Standard mouse chow (5 g/mouse/day) was mixed in water (2.2 mL H2O/gram chow), soaked for 15 minutes, then mashed. Griseofulvin doses were prepared at 0.0% (control), 0.5%, and 1.0% with 0.0 g, 0.5 g, and 1.0 g griseofulvin: 10 mL corn oil: 100 g mouse chow ratio, respectively. […] The corn oil solutions and mouse chow mixture were manually mixed thoroughly for 10 minutes. During treatment, the mice were examined and weighed 3 times/week (FIG. 1A). On Day 8, mice underwent L-CNV as above, and were imaged by OCT at Day 15 and Day 22, at which time they were euthanized. The eyes were enucleated and flatmounts prepared as above. The livers were dissected out and weighed (FIG. 1B).

[8] = antifungal treatment of humans; cited from earlier work
[9] = test system: mouse choroid-sclera; assay: Choroidal sprouting assay; format: cell-based; details: ex vivo, 48 hours with compound
Protocol: To assess choroidal sprouting, pieces of choroid-sclera dissected from euthanized mouse eyes were embedded in Matrigel and grown in EGM-2 medium plus antibiotics for 72 hours to allow sprouting to initiate. The indicated concentrations of griseofulvin (in DMSO, final DMSO concentration 1%) were added and growth allowed to proceed for 48 hours. Images were taken and growth quantified by measuring distance from the edge of the choroidal piece to the growth front in 4 directions per sample.

[10] = test system: choroidal neovascularization; assay: L-CNV model (laser-induced choroidal neovascularization); format: in vivo, mouse; details: L-CNV mice

decrease of binding of ferrochelatase to affinity reagent [1]: 87%
Compound: COc1ccc(CC2COc3cc(OC)c(O)c(O)c3C2=O)cc1O (single isomer, unassigned) [cremastranone isomer]

buildup of PPIX [4]: dose-dependent buildup of PPIX
Compound: COc1ccc(CC2COc3cc(O)c(OC)c(O)c3C2=O)cc1O (centres unmarked) [cremastranone]
rescue of antiproliferative effects by excess 5-ALA ([2]; HRECs, addition of 5-aminolevulinic acid): partially rescued
antiproliferative effects [3]: selective antiproliferative effects on endothelial cells

liver weights [7]: increased
mouse weights ([7]; experimental timecourse): did not significantly change
Compound: COC1=CC(=O)C[C@@H](C)[C@]12Oc1c(Cl)c(OC)cc(OC)c1C2=O [griseofulvin]
migration of HRECs [5]: inhibition of migration
tube formation ability of HRECs [6]: inhibition of tube formation
concentration attained in plasma [8]: 1 to 2 µg/mL
formation of microvascular sprouts [9]: inhibited formation of microvascular sprouts
proliferation of HRECs [2]: dose-dependent antiproliferative effects
concentration of griseofulvin needed to have effects ([2]; HRECs in vitro (proliferation, migration, tube formation)): ~10 µM
neovascularization ([10]; feeding 0.5% and 1% in chow): decreased neovascularization
neovascularization ([10]; single intravitreal injection 50 μM, 100 μM): dose-dependent results

Compound: N-methyl protoporphyrin [NMPP]
migration of HRECs [5]: inhibited
tube formation ability of HRECs [6]: inhibited
proliferation of HRECs [2]: inhibited

Reference: patent US10752901B2, “Inhibition of ferrochelatase as an antiangiogenic therapy” (Indiana University Research and Technology Corporation, priority 2015, dated 2020)
